Source: patent US4382937A, “Naphthyridine derivatives and their use as anti-bacterials” (Dainippon Pharmaceutical Co., Ltd., priority 1981, dated 1983)
≈ marks a conversion by molar mass, not a printed value.

How the values were obtained:
Enterobacter cloacae 963 = experiment: In vitro antibacterial activity (MIC), twofold agar-dilution method; type: cell-based; conditions: Enterobacter cloacae 963, twofold agar-dilution; read-out: minimum inhibitory concentration (MIC)
Procedure: (§1) The minimum inhibitory concentrations (MIC: μg/ml) of the following compounds were measured by the twofold agar-dilution method according to the procedure described in Chemotherapy, Vol. 29, No. 1, page 76 (1981).

[1] = test system: Escherichia coli NIHJ JC-2; experiment: as above; type: cell-based; conditions: NIHJJC2; Escherichia coli NIHJ JC-2, twofold agar-dilution; read-out: minimum inhibitory concentration (MIC)
Procedure: as §1

Escherichia coli P-5101 [2] = experiment: as above; type: cell-based; conditions: P5101; Escherichia coli P-5101, twofold agar-dilution; read-out: minimum inhibitory concentration (MIC)
Procedure: as §1

[3] = test system: Klebsiella pneumoniae No. 13; experiment: as above; type: cell-based; conditions: Klebsiella pneumoniae No. 13, twofold agar-dilution; read-out: minimum inhibitory concentration (MIC)
Procedure: as §1

[4] = test system: Proteus mirabilis IFO 3849-4; experiment: as above; type: cell-based; conditions: IFO3849; Proteus mirabilis IFO 3849-4, twofold agar-dilution; read-out: minimum inhibitory concentration (MIC)
Procedure: as §1

Proteus morganii Kono = experiment: as above; type: cell-based; conditions: Morganella morganii, read-out: minimum inhibitory concentration (MIC)
Procedure: as §1

[5] = test system: Pseudomonas aeruginosa No. 12; experiment: as above; type: cell-based; conditions: Pseudomonas aeruginosa No. 12, twofold agar-dilution; read-out: minimum inhibitory concentration (MIC)
Procedure: as §1

[6] = test system: Pseudomonas aeruginosa Tsuchiijima; experiment: as above; type: cell-based; conditions: read-out: minimum inhibitory concentration (MIC)
Procedure: as §1

[7] = test system: Salmonella enteritidis No. 1891; experiment: as above; type: cell-based; conditions: Salmonella enterica; Salmonella enteritidis No. 1891, twofold agar-dilution; read-out: minimum inhibitory concentration (MIC)
Procedure: as §1

[8] = test system: Salmonella typhimurium S-9; experiment: as above; type: cell-based; conditions: Salmonella enterica; Salmonella typhimurium S-9, twofold agar-dilution; read-out: minimum inhibitory concentration (MIC)
Procedure: as §1

[9] = test system: Serratia marcescens IFO 3736; experiment: as above; type: cell-based; conditions: IFO3736; Serratia marcescens IFO 3736, twofold agar-dilution; read-out: minimum inhibitory concentration (MIC)
Procedure: as §1

Shigella flexneri 2a = experiment: as above; type: cell-based; conditions: read-out: minimum inhibitory concentration (MIC)
Procedure: as §1

Escherichia coli P-5101 [10] = experiment: In vivo therapeutic efficacy against systemic infections in mice; set-up: species or system mice (ddY); conditions: P5101, 168 h; systemic infection, Escherichia coli P-5101, male mice, po, twice (about 5 minutes and 6 hours after infection), 7 days, Behrens-Kaerber; read-out: median effective dose (ED50)
Procedure: (§2) Compounds 1 and A were each suspended in a 0.2% aqueous solution of sodium carboxymethyl cellulose. Each of the solutions was orally administered to mice infected with each of the test organisms under the conditions described below, and the median effective doses (ED50) obtained are shown in Table II. Male mice (ddY) weighing about 20 g (1) Escherichia coli P-5101: Intraperitoneal infection with about 9×10^6 cells per mouse suspended in trypto-soy broth with 4% mucin. Twice, about 5 minutes and 6 hours after infection. for 7 days. | The numerals in the table show ED50 (mg/kg). ED50 values were | calculated in accordance with the BehrensKaerber method (Arch. Exp. Path. | Pharm., 162, 480 (1931)). | po: oral administration.

[11] = test system: Pseudomonas aeruginosa No. 12; experiment: as above; set-up: species or system mice (ddY); conditions: 168 h; systemic infection, Pseudomonas aeruginosa No. 12, male mice, po, twice (about 5 minutes and 6 hours after infection), 7 days, Behrens-Kaerber; read-out: median effective dose (ED50)
Procedure: as §2, with “(2) Pseudomonas aeruginosa No. 12:” for “(1) Escherichia coli P-5101:”, “4×10^3” for “9×10^6”

[12] = test system: Pseudomonas aeruginosa No. 12; experiment: In vivo therapeutic efficacy against pulmonary infection in mice; set-up: species or system mice (ddY-S); conditions: NO.12, 120 h, female mice, po, 0, 1 and 3 hours after infection, survival on 5th day, probit analysis
Procedure: (§3) Female mice (ddY-S) weighing 18 to 26 g were intranasally intected with 4 drops of a bacterial suspension* in physiological saline. Drugs suspended in 0.2% sodium carboxymethyl cellulose were orally administered 0, 1, and 3 hours after infection. Survival rates were determined on the 5th day after infection. ED50 was calculated by probit analysis.
*Pseudomonas aeruginosa No. 12--2.0×10^7 cells/mouse

[13] = test system: Pseudomonas aeruginosa No. 12; experiment: In vivo therapeutic efficacy against ascending kidney infection; set-up: species or system mice (Std:ddY-S); conditions: NO.12, 120 h, female mice, po, twice a day for 3 days, kidneys on 5th day, probit analysis
Procedure: Compounds 1 and A were tested by the following procedure for therapeutic efficacy against the ascending kidney infection with Pseudomonas aeruginosa No. 12 in mice. Female mice (Std:ddY-S) weighing 22 to 30 g were anesthetized by intravenous injection of sodium pentobarbital at a dose of 50 mg/kg. Through a small suprapubic incision, the urinary bladder was exposed and then infected by injecting 0.1 ml of a 1:10,000 dilution of Pseudomonas aeruginosa No. 12 cultured for 20 hours in trypto-soy broth, using a 0.25 ml syringe with a 0.25 mm needle. The mice were restrained from drinking water for a period from 1 day before to 1 day after the infection. The compound 1 or A was administered orally twice a day for 3 days starting on the day of infection. On the 5th day after infection, the kidneys were harvested for the detection of the bacteria, transversely bisected and stamped on King A agar, which were incubated at 37° C. overnight. No bacterial finding in the kidneys was regarded as protected from the ascending kidney infection. ED50 values were calculated by probit analysis.

[14] = test system: Pseudomonas aeruginosa No. 12; experiment: In vivo therapeutic efficacy against dermal infections; set-up: species or system mice (ddY-S); conditions: NO.12, 96 h, dermal infection, female mice, po, 6 times (0, 3, 6, 24, 27, 30 hours), abscess on 4th day, probit analysis
Procedure: Female mice (ddY-S) weighing 21 to 26 g were subcutaneously infected at the dorsal skin with approximate 9×10^6 viable cells of Pseudomonas aeruginosa No. 12 in 0.2 ml physiological saline. Medication was performed 6 times; 0, 3, 6, 24, 27, and 30 hours after infection. The appearance of skin abscess at the inoculated site was examined on the 4th day after infection and mice bearing no abscess were regarded as protected from the infection. ED50 was calculated by probit analysis.

[15] = Acute oral toxicity in mice; conditions: mouse, in vivo, male mice, deaths after 7 days, Behrens-Kaerber, read-out: median lethal dose (LD50)
Procedure: A solution containing compound 1 in various concentrations was orally given to male mice (ddY-S) at a volume of 0.1 ml per 10 g of body weight. The number of dead mice was counted after 7 days, and the value of median lethal dose (LD50; mg/kg) was calculated in accordance with the Behrens-Kaerber method.

Gram-negative bacteria = experiment: In vivo antibacterial efficacy (Tables II to V), overall comparison; set-up: species or system mice; conditions: compound 1 compared with compound A
From the text: Compounds 1 and A were each suspended in a 0.2% aqueous solution of sodium carboxymethyl cellulose. Each of the solutions was orally administered to mice infected with each of the test organisms under the conditions described below, and the median effective doses (ED50) obtained are shown in Table II.
as §3
Female mice (Std:ddY-S) weighing 22 to 30 g were anesthetized by intravenous injection of sodium pentobarbital at a dose of 50 mg/kg. Through a small suprapubic incision, the urinary bladder was exposed and then infected by injecting 0.1 ml of a 1:10,000 dilution of Pseudomonas aeruginosa No. 12 cultured for 20 hours in trypto-soy broth, using a 0.25 ml syringe with a 0.25 mm needle. […] ED50 values were calculated by probit analysis.
Female mice (ddY-S) weighing 21 to 26 g were subcutaneously infected at the dorsal skin with approximate 9×10^6 viable cells of Pseudomonas aeruginosa No. 12 in 0.2 ml physiological saline. […] ED50 was calculated by probit analysis.

Row | SMILES | MIC (Enterobacter cloacae 963) [mg/L] | MIC [1] [mg/L] | MIC (Escherichia coli P-5101 [2]) [mg/L] | MIC [3] [mg/L] | MIC [4] [mg/L] | MIC (Proteus morganii Kono) [mg/L] | MIC [5] [mg/L] | MIC [6] [mg/L] | MIC [7] [mg/L] | MIC [8] [mg/L] | MIC [9] [mg/L] | MIC (Shigella flexneri 2a) [mg/L] | ED50 (Escherichia coli P-5101 [10]) [mg/kg] | ED50 [11] [mg/kg] | ED50 [12] [mg/kg] | ED50 [13] [mg/kg] | ED50 [14] [mg/kg] | LD50 at 168 h [15] [mg/kg] | in vivo antibacterial efficacy against Gram-negative bacteria (Gram-negative bacteria)
1 | CCn1cc(C(=O)O)c(=O)c2cc(F)c(N3CCC(N)C3)nc21 (stereo not drawn) [A, 7-(3-Amino-1-pyrrolidinyl)-1-ethyl-6-fluoro-1,4-dihydro-4-oxo-1,8-naphthyridine-3-carboxylic acid, reference compound] | 0.2 (≈ 0.624 µM) | 0.1 (≈ 0.312 µM) | 0.05 (≈ 0.156 µM) | 0.2 (≈ 0.624 µM) | 0.39 (≈ 1.22 µM) | 0.2 (≈ 0.624 µM) | 0.39 (≈ 1.22 µM) | 0.39 (≈ 1.22 µM) | 0.05 (≈ 0.156 µM) | 0.1 (≈ 0.312 µM) | 0.2 (≈ 0.624 µM) | 0.1 (≈ 0.312 µM) | 1.6 | 6.7 | 19.7 | 3 | 11.7 |  | 
2 | C=Cn1cc(C(=O)O)c(=O)c2cc(F)c(N3CCC(N)C3)nc21 (stereo not drawn) [Compound 1, 7-(3-Amino-1-pyrrolidinyl)-6-fluoro-1,4-dihydro-4-oxo-1-vinyl-1,8-naphthyridine-3-carboxylic acid] | 0.05 (≈ 0.157 µM) | 0.025 (≈ 0.0785 µM) | 0.025 (≈ 0.0785 µM) | 0.1 (≈ 0.314 µM) | 0.2 (≈ 0.628 µM) | 0.05 (≈ 0.157 µM) | 0.2 (≈ 0.628 µM) | 0.2 (≈ 0.628 µM) | 0.025 (≈ 0.0785 µM) | 0.05 (≈ 0.157 µM) | 0.2 (≈ 0.628 µM) | 0.025 (≈ 0.0785 µM) | 0.8 | 1.8 | 6.3 | 0.5 | 2.4 | > 4000 | much better in vivo antibacterial efficacy against Gram-negative bacteria than the compound A
